Measured values as given in patent US20230346777A1, “USE OF SGC ACTIVATORS FOR THE TREATMENT OF OPHTHALMOLOGIC DISEASES” (Bayer Aktiengesellschaft, priority 2020, published 2023).
Entries after “also recorded” stand apart in the source; their conditions may differ. Counter-ions that a name gives are not always drawn.

Key:
[1] = tested on: retinal ischemia reperfusion (I/R) in rat; test: Acute changes in rat retinal structure after retinal ischemia reperfusion (I/R), prophylactic settings; assay type: in vivo, male Wistar Unilever rats; conditions: I/R rats
Excerpt: B-7 Evaluation of Acute Changes in Rat Retinal Structure after Retinal Ischemia Reperfusion (I/R) Prophylactic Settings
Six male Wistar Unilever rats were used per experimental group. On induction day, rats were anesthetized with an intraperitoneal injection of Rompun® and Ketavet® before the pupils of the right eyes (oculus dextrus, OD) were dilated with Alcain eye drops and in addition treated with Vigamox® eye drops. The left eye (oculus sinister, OS) is covered with Bepanthen® eye cream. Under deep anesthesia, the retina and the optic nerve were examined by optical coherence tomography (OCT) as a baseline measurement. 15 minutes before induction, group 2 received an intravenous (IV) bolus of compound (e.g. example 3, formula I-E-R) (i.v. 3 mg/kg in rat plasma). Then, the anterior chamber was punctured with a 30 G needle. Through a tube, 0.9% NaCl solution was pumped into the anterior chamber with a pressure 120 mm Hg. The pressure is regulated with a blood pressure cuff. The intraocular pressure (IOP) was elevated for 45 min. The procedure was successful as the eyeballs discolored because of vascular obstruction. After 45 min, the needle was removed, eye cream was put on the right eye and the animal could wake up. […]
Functional read-out of retinal electrical signal in response to light stimulation “b-wave amplitude (μv)” represents inner retinal function. […]

[2] = biological target: T1, recombinant guanylate cyclase reporter cell line (Rattus norvegicus, UniProt P20595); test: Effect on a recombinant guanylate cyclase reporter cell line; assay type: cell-based
T1 construct: expressed in transfected cells; CHO by own knowledge of the cited Wunder et al. 2005
T1 sequence (P20595 1-619): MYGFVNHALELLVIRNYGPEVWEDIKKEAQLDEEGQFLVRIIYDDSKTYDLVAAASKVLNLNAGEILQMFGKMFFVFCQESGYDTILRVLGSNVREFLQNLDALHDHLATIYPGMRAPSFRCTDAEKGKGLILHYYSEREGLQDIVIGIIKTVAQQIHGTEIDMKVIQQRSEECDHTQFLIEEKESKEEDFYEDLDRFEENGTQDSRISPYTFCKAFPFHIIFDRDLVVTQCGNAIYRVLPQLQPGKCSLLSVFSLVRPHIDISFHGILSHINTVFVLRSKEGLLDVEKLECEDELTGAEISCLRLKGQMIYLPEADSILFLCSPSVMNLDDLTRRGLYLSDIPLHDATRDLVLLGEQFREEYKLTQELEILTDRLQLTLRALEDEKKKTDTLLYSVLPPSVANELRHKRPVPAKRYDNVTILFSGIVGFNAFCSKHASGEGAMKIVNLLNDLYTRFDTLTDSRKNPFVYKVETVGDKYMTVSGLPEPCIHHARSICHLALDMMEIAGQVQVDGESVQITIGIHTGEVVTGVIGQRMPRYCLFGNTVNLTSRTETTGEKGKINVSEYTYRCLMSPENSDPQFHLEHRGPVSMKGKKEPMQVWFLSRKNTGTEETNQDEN
T1 sequence (P19686 1-690 partner): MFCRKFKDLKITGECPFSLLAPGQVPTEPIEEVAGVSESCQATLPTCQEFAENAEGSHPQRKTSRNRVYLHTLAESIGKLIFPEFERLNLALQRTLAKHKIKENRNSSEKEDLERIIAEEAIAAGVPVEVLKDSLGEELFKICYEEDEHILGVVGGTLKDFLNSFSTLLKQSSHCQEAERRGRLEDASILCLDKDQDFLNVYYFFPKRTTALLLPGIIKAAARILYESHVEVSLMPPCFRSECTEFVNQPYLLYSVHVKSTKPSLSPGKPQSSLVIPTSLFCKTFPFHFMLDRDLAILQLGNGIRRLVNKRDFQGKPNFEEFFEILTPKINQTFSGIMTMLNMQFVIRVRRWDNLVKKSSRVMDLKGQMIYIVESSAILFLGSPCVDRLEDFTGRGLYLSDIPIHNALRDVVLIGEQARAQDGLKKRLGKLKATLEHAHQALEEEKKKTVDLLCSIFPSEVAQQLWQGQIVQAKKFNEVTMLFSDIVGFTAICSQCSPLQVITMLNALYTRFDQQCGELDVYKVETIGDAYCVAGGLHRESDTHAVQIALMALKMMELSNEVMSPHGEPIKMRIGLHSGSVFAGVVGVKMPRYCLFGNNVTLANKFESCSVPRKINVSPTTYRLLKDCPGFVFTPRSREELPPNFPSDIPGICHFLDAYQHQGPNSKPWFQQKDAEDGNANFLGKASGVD
Procedure: B-1. Effect on a Recombinant Guanylate Cyclase Reporter Cell Line
The cellular activity of the compounds according to the invention was determined using a recombinant guanylate cyclase reporter cell line, as described in F. Wunder et al., Anal. Biochem. 339, 104-112 (2005).

## CC(C)CN1CCN(c2ccc(-c3ccc(Cl)cc3N3CCC[C@@H](n4ncc(C(=O)O)c4C(F)F)C3)cc2)CC1 [Example 3, 1-{1-[4-Chloro-4′-(4-isobutylpiperazin-1-yl)[biphenyl]-2-yl]piperidin-3-yl}-5-(difluoromethyl)-1H-pyrazole-4-carboxylic acid hydrochloride]
[1]; day 7 post ischemic induction
  retinal structure (OCT and histological examination): preserved retinal structure in both OCT and histological examination
[1]; oral QD from 2 days before to 6 days after induction plus i.v. 3 mg/kg bolus 15 min before induction, day 7 post induction, hydrochloride, 3 mg/kg
  b wave amplitude (ERG, retinal function): significant higher b wave amplitude compared to vehicle treated animals; also recorded: reduces ischemia induced retinal dysfunction
[2]
  EC50: 2.7 nM
[2]; hydrochloride
  MEC (minimum effective concentration): 0.6 nM
